From PMC3586143 (Drugs in R&D, 2012)
Read-outs that look alike come from different tables or passages of the source. Values belong to the molecule of their own block, whether it stands above or below them.

How the values were obtained:
[1] = in vivo; for tmax, median (range): 300 mg
[2] = clinical; details: male, human, in vivo, po, 200 mg/day; for AUC: AUC24, gmean; for Cmax: gmean
[3] = tested on: vascular endothelial growth factor and epidermal growth factor; details: cellular assays for VEGF and EGF; cited from earlier work
[4] = tested on: healthy male subjects; assay: Study B: safety and tolerability assessments; assay type: in vivo
[5] = for increase in AUC504: vandetanib + itraconazole compared with vandetanib alone
[6] = for half-life: t½, gmean (CV%)
[7] = tested on: healthy male subjects; assay: Study A: safety and tolerability assessments; assay type: in vivo

Compound: COc1cc2c(Nc3ccc(Br)cc3F)ncnc2cc1OCC1CCNCC1 [N-desmethylvandetanib]
AUC504 of metabolite as % of AUC504 of vandetanib [1]: ≈ 7%
tmax, median (range) [1]: 5 h

Compound: CC(O)C(C)n1ncn(-c2ccc(N3CCN(c4ccc(OCC5COC(Cn6cncn6)(c6ccc(Cl)cc6Cl)O5)cc4)CC3)cc2)c1=O (stereo not shown) [hydroxy-itraconazole]
AUC [2]: 7690 ng·h/mL
Cmax [2]: 413 ng/mL

Further lines, with some results ahead:

AUC [2]: 5040 ng·h/mL
Cmax [2]: 424 ng/mL
Compound: CCC(C)n1ncn(-c2ccc(N3CCN(c4ccc(OCC5COC(Cn6cncn6)(c6ccc(Cl)cc6Cl)O5)cc4)CC3)cc2)c1=O (stereo not shown) [itraconazole, reference compound]

increase in AUCct [1]: 126%
time post-dose by which plasma concentrations were nonquantifiable [1]: 96 to 240 h
tmax, median (range) [1]: 7 h
Compound: COc1cc2c(Nc3ccc(Br)cc3F)ncnc2cc1OCC1CC[N+](C)([O-])CC1 (stereo not shown) [vandetanib N-oxide]
activity relative to vandetanib (fold less active) [3]: > 50 fold

Tmax ([5]; male, human, in vivo, 300 mg): 5 h
increase in AUC504 [5]: 9%
increase in AUC504 ([5]; listed as Vandetanib): about 9%
median time to Cmax ([6]; both studies (A and B), vandetanib 300 mg single dose): 5 to 6 h
Tmax ([6]; male, human, plasma, oral, 300 mg): 6 h
half-life ([6]; male, human, plasma, oral, 300 mg, after vandetanib 300 mg alone): 9.07 days
half-life ([6]; male, human, plasma, oral, after vandetanib 300 mg + rifampicin): 4.85 days
Compound: COc1cc2c(Nc3ccc(Br)cc3F)ncnc2cc1OCC1CCN(C)CC1 [vandetanib]
subjects with increase from baseline in QTC of >60 ms [4]: Three subjects
increase in mean QTC interval after the dose ([4]; at each timepoint): ≤ 20 ms
tolerability ([4]; single dose 300 mg): well tolerated
subjects reporting adverse events ([4]; vandetanib in the absence of itraconazole): 31.3%
tolerability ([7]; single dose 300 mg): well tolerated
change in mean corrected QT (QTC) interval ([7]; vandetanib alone or in combination with rifampicin): no clinically important changes
subjects with increase from baseline in QTC interval of >60 ms ([7]; vandetanib in combination with rifampicin): One subject
subjects reporting adverse events ([7]; vandetanib in the presence of rifampicin): 31.3%
